In patent publication US11439657B2, “Cancer stem cell growth inhibitor using miRNA” (CancerStem Tech Inc., priority 2017, dated 2022):
“Also recorded” adds a separate entry of the source.

Tests used:
[1] = system: cancer stem cell population (ZsGreen+) established from pancreatic cancer cell line Panc-1; experiment: Screening of miRNAs: cell count (cell viability) of the cancer stem cell population after transfection; format: cell-based, human; conditions: miRNA 10 pmol/well, lipofectamin 2000, cells counted 48 and 72 hours later, FIG. 4
From the text: A cancer stem cell line was established by transducing a pancreatic cancer cell line (Panc-1) with an ODC (Ornithine Decarboxylase)-Degron system capable of visualizing low metabolism that is a property of cancer stem cells using a retrovirus vector (FIG. 1a). The base sequence coding the used ODC-Degron is as set forth in SEQ ID NO: 10. Usually, cancer stem cells are so 26s proteasome hypometabolic that they cannot degrade the introduced fluorescently labeled Ornithine Decarboxylase Degron, and thus the fluorescent protein sufficiently accumulates to provide visualization.
However, even when the ODC-degron system was introduced into the pancreatic cancer cell line Panc-1, only about 0.06% cells emitting fluorescence (green) were obtained in total. With such a small number of cancer stem cells, a series of experiments including drug screening cannot be performed. Accordingly, further enrichment of cancer stem cells provided a cancer stem cell population in which cells having observed fluorescent coloring (i.e., cancer stem cells) accounted for about 81.18% in total (FIG. 1b). The obtained cancer stem cell population was designated as ZsGreen+.
A cell suspension prepared by suspending the cancer stem cell population (ZsGreen+) in a medium (DMEM medium containing 10% by volume FBS) was seeded in each well of a 24-well plate at a density of 5000 to 10000 cells/well, followed by culture at 37° C. overnight. Thereafter, according to the lipofectamin 2000 protocol, each miRNA was transfected at 10 pmol/well, and 48 hours and 72 hours later, the cells were counted. In addition, tests were also conducted under the same condition on a case where the miRNA was not introduced (untreated group, control), a case where has-miR-34a (SEQ ID NO: 8) was used (positive control) in place of the selected miRNA, and a case where a control miRNA (SEQ ID NO: 9) was used (NC1, negative control) in place of the selected miRNA. In addition, for comparison, the non-cancer stem cell population (ZsGreen−) was used in place of the cancer stem cell population (ZsGreen+) to conduct tests under the same condition.
The ratio of the number of cells under each condition to the number of control cells into which the miRNA was not introduced (cell viability, %) was determined.

[2] = system: human large bowel cancer cells (DLD1 line); experiment: Antitumor effect on human large bowel cancer cells, cell count after transfection; format: cell-based; conditions: 10 pmol/well, FIG. 11; for antitumor effect: 72 hours, positive control hsa-miR-34a; for proliferation inhibitory effect on large bowel cancer cells: cells counted 72 hours after transfection
Method: (§1) A cell suspension prepared by suspending human pancreatic cancer cells (Bxpc3 line) in D-MEM medium (containing 10% by volume FBS) was seeded in each well of a 24-well plate at 3×10^3 cells/well, followed by culture at 37° C. overnight. Thereafter, according to the lipofectamin 2000 protocol, each miRNA was transfected at 10 pmol/well, and 48 hours later, the cells were counted. In addition, tests were also conducted under the same condition on a case where the miRNA was not introduced (untreated group), a case where hsa-miR-34a (SEQ ID NO: 8) was used (positive control) in place of the miRNA, and a case where a control miRNA (SEQ ID NO: 9) was used (control miRNA, negative control) in place of the selected miRNA.
(§2) As to hsa-miR-136-5p, hsa-miR-3065-3p, hsa-miR-4727-5p, hsa-miR-378g, hsa-miR-181a-5p, hsa-miR-362-5p and hsa-miR-608, evaluation was performed of the antitumor effect on human large bowel cancer cells. The specific test method is the same as that for Test Example 4 except that human large bowel cancer cells (DLD1 line) were used as cancer cells, and that the cells were counted 72 hours after transfection.

[3] = system: human pancreatic cancer cells (Bxpc3 line); experiment: Antitumor effect on human pancreatic cancer cells (1), cell count after transfection; format: cell-based; conditions: 10 pmol/well, FIG. 8; for antitumor effect: 48 hours, positive control hsa-miR-34a; for proliferation inhibitory effect on pancreatic cancer cells: cells counted 48 hours later
Method: as §1

[4] = system: human esophageal cancer cells (TE11 line); experiment: Antitumor effect on human esophageal cancer cells, cell count after transfection; format: cell-based; conditions: 10 pmol/well, FIG. 12; for antitumor effect: 72 hours, positive control hsa-miR-34a; for proliferation inhibitory effect on esophageal cancer cells: cells counted 72 hours after transfection
Method: as §1
as §2, with “hsa-miR-378g and” for “hsa-miR-378g,”, “hsa-miR-181a-5p,” for “hsa-miR-181a-5p, hsa-miR-362-5p and hsa-miR-608,”, “esophageal” for “large bowel”, “(TE11” for “(DLD1”

Substance | proliferation inhibitory effect on cancer stem cells (cell viability) [1] | antitumor effect [2] | proliferation inhibitory effect on large bowel cancer cells [2] | antitumor effect [3] | proliferation inhibitory effect on pancreatic cancer cells [3] | antitumor effect [4] | proliferation inhibitory effect on esophageal cancer cells [4]
has-miR-34a: positive control miRNA (SEQ ID NO: 8), conventionally considered to have the highest therapeutic effect on solid tumor (UGGCAGUGUCUUAGCUGGUUGU; listed as RNA, chemistry not given here; listed as Homo sapiens) [reference compound] | not sufficient | – | – | – | – | – | –
hsa-miR-362-5p: human-derived miR-362-5p; base sequence set forth in SEQ ID NO: 6 as mature miRNA (AAUCCUUGGAACCUAGGUGUGAGU; listed as RNA, chemistry not given here; listed as Homo sapiens) | effectively suppress proliferation of cancer stem cells; also recorded: prominent proliferation inhibitory effect | much better antitumor effect than that of hsa-miR-34a; also recorded: particularly remarkable antitumor effect | strong proliferation inhibitory effect | – | – | – | –
hsa-miR-378g: human-derived miR-378g; base sequence set forth in SEQ ID NO: 4 as mature miRNA (ACUGGGCUUGGAGUCAGAAG; listed as RNA, chemistry not given here; listed as Homo sapiens) | effectively suppress proliferation of cancer stem cells | much better antitumor effect than that of hsa-miR-34a | strong proliferation inhibitory effect | much better antitumor effect than that of hsa-miR-34a | strong proliferation inhibitory effect | much better antitumor effect than that of hsa-miR-34a | strong proliferation inhibitory effect
hsa-miR-608: human-derived miR-608; base sequence set forth in SEQ ID NO: 7 as mature miRNA (AGGGGUGGUGUUGGGACAGCUCCGU; listed as RNA, chemistry not given here; listed as Homo sapiens) | effectively suppress proliferation of cancer stem cells; also recorded: prominent proliferation inhibitory effect | much better antitumor effect than that of hsa-miR-34a; also recorded: particularly remarkable antitumor effect | strong proliferation inhibitory effect | – | – | – | –
hsa-miR-4727-5p: human-derived miR-4727-5p; base sequence set forth in SEQ ID NO: 3 as mature miRNA (AUCUGCCAGCUUCCACAGUGG; listed as RNA, chemistry not given here; listed as Homo sapiens) | effectively suppress proliferation of cancer stem cells | much better antitumor effect than that of hsa-miR-34a | strong proliferation inhibitory effect | much better antitumor effect than that of hsa-miR-34a | strong proliferation inhibitory effect | much better antitumor effect than that of hsa-miR-34a | strong proliferation inhibitory effect
